Data published in patent publication US9868773B2, “Peptide for treatment of type 2 diabetes mellitus and its complications” (DAPHOT ENTERPRISES LIMITED, priority 2014, dated 2018).
Entries after “also recorded” stand apart in the source; their conditions may differ. Marks after values point to notes of the source that are not given here.

Key:
[1] = test system: rats with diabetic neuropathy; experiment: Assessment of tactile allodynia (von Frey hairs) on rats with diabetic neuropathy; type: in vivo, rat; conditions: for effect on tactile allodynia manifestation in diabetic neuropathy: 60th-80th day of injection, vs control group; for mean value of paw withdrawal threshold, 60th day of products injection: Byetta and exenatide 4.5 ppb, D-peptide 6.0 ppb s.c., Metformin 85.7 ppm i.g. daily, control 2.77, intact 27.74; for mean value of paw withdrawal threshold, 70th day of products injection / mean value of paw withdrawal threshold, 80th day of products injection: same doses; for mean value of paw withdrawal threshold, 70th day of products injection: control 3.10, intact 26.94; for mean value of paw withdrawal threshold, 80th day of products injection: control 3.46, intact 27.74
Description: (§1) In accordance with the experiment schedule, animals underwent induction of experimental diabetes mellitus using single injection of Streptozotocin (STZ) abdominally in the dose of 65 ppm previously diluted in citrate buffer (pH=6.5) on the day 0. All animals were injected abdominally with nicotinomide in the dose of 230 ppm (5% solution) 2 hours before it.
A rat was put into a plastic cage with a grating floor made of metal wire and left in this cage for 5 minutes to extinguish orientation response.
Threshold of each rat was initially determined on the left paw, and then on the right paw. A hair end touched the middle of the plantar surface on the paw with the force required for hair bending, and it was left in this position for 6-8 seconds. Positive response was recorded if the animal withdrew its paw abruptly during touching, or removal of a hair was followed by sharp paw bending.
Testing was started from application of a hair corresponding to the force of 3.630 g. Then stimuli (hairs) were used in the increasing and decreasing sequence. The hair with the least coarseness was used in case of positive response, while the hair with the largest coarseness was used in case of negative response. 4 more hairs were used according to the same principle after initial determination of sensitivity threshold.
Psychophysiological mean effective threshold of tactile responsiveness was calculated by the method described by Dixon.

gastrocnemius muscle = experiment: Condition assessment of muscle tissue (gastrocnemius muscle) of diabetic rats; type: in vivo, rat; conditions: for Cross section area of fibers, μm^2: gastrocnemius muscle, M ± m, after 80-day injection, intact 1,450, control 551.1; for pathomorphological condition of gastrocnemius muscle tissue: histology after 80-day injection
Excerpt: (§2) Nuclei were counterstained with hemalum.
(§3) 4.8. and image editor PhotoM 1.21.

[2] = test system: chemical experimental diabetes induced by a single injection of Streptozocin (STZ) and nicotinamide to male rats; experiment: Determination of glycosylated hemoglobin (HbA1c) in blood of diabetic rats; type: in vivo, rat; conditions: for Glycosylated hemoglobin, %: M ± m, 81st day of daily injection, Byetta and exenatide 4.5 ppb, D-peptide 6.0 ppb s.c., Metformin 85.7 ppm i.g., intact 4.2, control 15.6; for reduction of HbA1c concentration, therapy effect in intergroup comparison: vs control group, after 80-day therapy
Description: as §1
A sample of venous blood was taken to determine the glycosylated hemoglobin level of animals on the day of euthanasia. The following organs were also taken for pathomorphological study: sciatic nerve, part of mesentery artery, part of retina artery, part of gastrocnemius muscle and pancreatic gland.
Determination of glycosylated hemoglobin in venous blood was conducted using the kit of reagents “Diabetes Test, HbA1c” (“Phosphosorb” LLC, Russia) by the method of affinity chromatography of glycosylated and non-glycosylated hemoglobin fractions in rat blood hemolysate.
Blood samples for determination of glycosylated hemoglobin in hemolysate of animal red blood cells were taken from the tail vein of experimental animals on the 81st day of daily injection of test products.

[3] = test system: pancreatic gland insular apparatus; experiment: Pancreatic gland insular apparatus of diabetic rats (islet area morphometry); type: in vivo, rat; conditions: after 80-day injection; intact 0.066, control 0.012
Description: as §2, §3
1. pancreatic gland insular apparatus where measurement of islets area was performed;

[4] = test system: chemical experimental diabetes induced by a single injection of Streptozocin (STZ) and nicotinamide to male rats; experiment: Determination of glucose in peripheral blood of rats with STZ/nicotinamide-induced experimental diabetes; type: in vivo, rat; conditions: fasted STZ/nicotinamide rats; daily for 80 days; Byetta and exenatide 4.5 ppb, D-peptide 6.0 ppb subcutaneously, Metformin 85.7 ppm intragastrically; vs control group
Description: as §1
Glucose level measurement in peripheral blood of rats was conducted using the glucose meter OneTouch® and dipsticks OneTouch® by the glucose oxidase test. Rats were deprived of feed, but not water for a night before glucose level measurement. The measurement process was as follows: an animal with a required mark was removed from the cage, its tail was treated with bactericidal agent, a vein was punctured using a syringe needle, and the glucose meter with a dipstick was brought in place when a blood drop was effused. Obtained data was entered into the initial card.

sciatic nerve tissue = experiment: Condition assessment of sciatic nerve tissue of diabetic rats (histology, morphometry); type: in vivo, rat; conditions: for pathomorphological condition of sciatic nerve tissue: histology after 80-day injection; for Nerve stem thickness, μm / Endoneurium connective tissue area, μm^2: sciatic nerve after 80-day injection; for Nerve stem thickness, μm: intact 340.5, control 203.3; for Endoneurium connective tissue area, μm^2: intact 2,596.3, control 3,962.5
Excerpt: as §2, §3

[5] = test system: rats with alcohol neuropathy; conditions: D-peptide 10 ppb, 100th day of daily injection; vs control group, p<0.05; 30% alcohol forced drinking
Description: Tactile allodynia was assessed prior to modeling of alcohol neuropathy on the 1st day of product injection, and on the 50th and 100th day of daily injection. Data are given as a mean threshold value of paw withdrawal (g) (M±m).
The allodynia test was performed on the 60th, 70th and 80th days of injection of medicinal products during experiment. In case of alcohol neuropathy, the tactile responsiveness test was performed on the 1st, 50th and 100th day of injection of medicinal products.
Assessment of tactile allodynia was performed in the same way as in the example 7.

[6] = test system: mesenteric artery intima of rats; conditions: after 80-day injection; vs control group (FIG. 3)
Excerpt: as §2, §3

| Compound | effect on tactile allodynia manifestation in diabetic neuropathy [1] | mean value of paw withdrawal threshold, 60th day of products injection ([1]; M ± m) | mean value of paw withdrawal threshold, 70th day of products injection ([1]; M ± m) | mean value of paw withdrawal threshold, 80th day of products injection ([1]; M ± m) | mean value of paw withdrawal threshold, Baseline ([1]; M ± m, baseline, prior to injection of test products) | Cross section area of fibers, μm^2 (gastrocnemius muscle) | pathomorphological condition of gastrocnemius muscle tissue (gastrocnemius muscle) | Glycosylated hemoglobin, % [2] | reduction of HbA1c concentration, therapy effect in intergroup comparison [2] | Area of pancreatic gland islets, mm² [3] | antihyperglycemic effect (glucose level in peripheral blood) [4] | pathomorphological condition of sciatic nerve tissue (sciatic nerve tissue) | Nerve stem thickness, μm (sciatic nerve tissue) | Endoneurium connective tissue area, μm^2 (sciatic nerve tissue) | effect on tactile allodynia in alcohol neuropathy [5] | mesenteric artery intima thickness, effect [6] |
| --- | --- | --- | --- | --- | --- | --- | --- | --- | --- | --- | --- | --- | --- | --- | --- | --- |
| CN(C)C(=N)N=C(N)N [Metformin] | decreased allodynia manifestation intensity slightly | 4.94 ± 0.90 g | 4.98 ± 0.87 g | 4.28 ± 0.45 g | 28.82 ± 0.00 g | 1,286 ± 157* μm^2 | Minimum focal inflammatory infiltration of fibers and interstitial tissue | 5.7 ± 0.25 % | maximum therapy effect | 0.034 ± 0.004 mm² | showed antihyperglycemic properties starting from the 20th day of therapy | did not have a therapeutic effect on nerve tissue; also recorded: nerve stem edema and excess increase of its thickness | 382 ± 23.4 μm | 2,826.3 ± 298.9* μm^2 | – | – |
| 14-glycine-exendin-4 (Heloderma suspectum)-(1-39)-peptidyl-octa-D-arginyl-glycine [D-peptide] | decreased tactile allodynia manifestations significantly | 16.15 ± 4.18 g | 13.91 ± 3.59 g | 15.05 ± 3.67 g | – | 1,472 ± 282* μm^2 | had apparent therapeutic action on muscle tissue | 5.5 ± 0.53 % | maximum therapy effect | – | had antihyperglycemic effect during therapy with duration of 80 days starting from the 40th day of injection | had a positive therapeutic effect | 303.6 ± 20.3 μm | 1,956.1 ± 273.4** μm^2 | decrease in tactile allodynia intensity | Maximum effect |
